This is an account of results in patent publication USRE47689E1, “Compounds for treating spinal muscular atrophy” (PTC Therapeutics, Inc., priority 2011, dated 2019).

In test [1] the test system is Smn protein. The experiment in a line: Smn protein assay in cultured cells (SMN HTRF). The format is cell-based, human. The note with it: for EC1.5x (concentration giving 1.5-fold Smn protein increase): SMA Type 1 patient fibroblast cells (GM03813), 7-point concentration curve, SMN HTRF, concentration producing 1.5 times Smn protein vs DMSO vehicle control, read-out: EC1.5x for Smn protein expression. The protocol:
The SMN HTRF (homogeneous time resolved fluorescence) assay is used to quantify the level of Smn protein in SMA patient fibroblast cells treated with test compounds.
Protocol. Cells are thawed and cultured in DMEM-10% FBS for 72 hours. Cells are trypsinized, counted and resuspended to a concentration of 25,000 cells/mL in DMEM-10% FBS. […] 1 μL of test compound solution is transferred to cell-containing wells and cells are incubated for 48 hours in a cell culture incubator (37° C., 5% CO2, 100% relative humidity). Triplicate samples are set up for each test compound concentration. After 48 hours, the supernatant is removed from the wells and 25 μL of the RIPA lysis buffer, containing protease inhibitors, is added to the wells and incubated with shaking at room temperature for 1 hour. 25 μL of the diluent is added and then 35 μL of the resulting lysate is transferred to a 384-well plate, where each well contains 5 μL of the antibody solution (1:100 dilution of anti-SMN d2 and anti-SMN kryptate in SMN reconstitution buffer). The plate is centrifuged for 1 minute to bring the solution to the bottom of the wells, then incubated overnight at room temperature. Fluorescence for each well of the plate at 665 nm and 620 nm is measured on an EnVision multilabel plate reader (Perkin-Elmer).
The normalized fluorescence signal is calculated for each sample, Blank and vehicle control well by dividing the signal at 665 nm by the signal at 620 nm. Normalizing the signal accounts for possible fluorescence quenching due to the matrix effect of the lysate. The ΔF value (a measurement of Smn protein abundance) for each sample well is calculated by subtracting the normalized average fluorescence for the Blank control wells from the normalized fluorescence for each sample well and then dividing this difference by the normalized average fluorescence for the Blank control wells. The resulting ΔF value for each sample well represents the Smn protein abundance from test compound-treated samples. The ΔF value for each sample well is divided by the ΔF value for the vehicle control wells to calculate the fold increase in Smn protein abundance relative to the vehicle control.
An EC1.5x for Smn protein expression between >3 μM and ≤10 μM is indicated by one star (*), an EC1.5x between >1 and ≤3 μM is indicated by two stars (**), an EC1.5x between >0.3 μM and ≤1 μM is indicated by three stars (***) and an EC1.5x≤0.3 μM is indicated by four stars (****).
For orientation: In TR-FRET formats the signal depends on donor and acceptor labels being close together.

Test [2] concerns SMN2 minigene (full length SMN2 minigene mRNA containing SMN2 exon 7). The experiment in a line: SMN2 minigene mRNA splicing RT-qPCR assay in cultured cells. The format is cell-based, human. As to conditions: for EC (1.5-fold): Homo sapiens, HEK293-H, read-out: EC1.5x for production of full length SMN2 mRNA. As for the experimental part: The reverse transcription-quantitative PCR-based (RT-qPCR) assay is used to quantify the level of the full length SMN2 minigene mRNA containing SMN2 exon 7 in a HEK293H cell line stably transfected with said minigene and treated with a test compound.
Protocol. HEK293H cells stably transfected with the SMN2-A minigene construct described above (10,000 cells/well) are seeded in 200 μL of cell culture medium (DMEM plus 10% FBS, with 200 μg/mL hygromycin) in 96-well flat-bottom plates and the plate is immediately swirled to ensure proper dispersal of cells, forming an even monolayer of cells. Cells are allowed to attach for at least 4-6 hours. […] A solution of test compound (1 μL, 200× in DMSO) is added to each cell-containing well and the plate is incubated for 24 hours in a cell culture incubator (37° C., 5% CO2, 100% relative humidity). 2 replicates are prepared for each test compound concentration. The cells are then lysed in Cells-To-Ct lysis buffer and the lysate is stored at −80° C.
The combination of these three oligonucleotides detects only SMN1 or SMN2 minigenes (RT-qPCR) and will not detect endogenous SMN1 or SMN2 genes.
The SMN forward and reverse primers are used at final concentrations of 0.4 μM.
The SMN2-minigene GAPDH mix (15 μL total volume) is prepared by combining 7.5 μL of 2×RT-PCR buffer, 0.4 μL of 25×RT-PCR enzyme mix, 0.75 μL of 20×GAPDH primer-probe mix, 4.0075 μL of water, 2 μL of 10-fold diluted cell lysate, 0.06 μL of 100 μM SMN forward primer, 0.06 μL of 100 μM SMN reverse primer, and 0.225 μL of 100 μM SMN probe.
PCR is carried out at the following temperatures for the indicated time: Step 1: 48° C. (15 min); Step 2: 95° C. (10 min); Step 3: 95° C. (15 sec); Step 4: 60° C. (1 min); then repeat Steps 3 and 4 for a total of 40 cycles.
Each reaction mixture contains both SMN2-A minigene and GAPDH primers/probe sets (multiplex design), allowing simultaneous measurement of the levels of two transcripts.
Two SMN spliced products are generated from the SMN2 minigene. The first spliced product containing exon 7, corresponding to full length SMN2 mRNA, is called SMN2mini FL. The second one lacking exon 7 is called SMN2mini Δ7.
The amplification efficiency E is calculated from the slope of the amplification curve for SMN2mini FL and GAPDH individually. The abundances of SMN2mini FL and GAPDH are then calculated as […], where Ct is the threshold value for each amplicon. The abundance of SMN2mini FL is normalized to GAPDH abundance. The normalized SMN2mini FL abundance from test compound-treated samples is then divided by normalized SMN2mini FL abundance from vehicle-treated cells to determine the level of SMN2 FL mRNA relative to vehicle control.
An EC1.5x for production of full length SMN2 mRNA between >3 μM and ≤30 μM is indicated by one star (*), an EC1.5x between >1 μM and ≤3 μM is indicated by two stars (**), an EC1.5x between >0.3 μM and ≤1 μM is indicated by three stars (***), an EC1.5x between >0.1 μM and ≤0.3 μM is indicated by four stars (****) and an EC1.5x≤0.1 μM is indicated by five stars (*****).
(In general: Real-time PCR tracks product formation cycle by cycle.)

The mark [3] stands for this setting: SMA patient fibroblast cells, 48 hours, 7-point concentration data, fold increase relative to vehicle control (SMN HTRF).
Setting [4] is: HEK293H cells stably transfected with SMN2-A minigene, 24 hours, 7-point concentration curve, 1.5-fold relative to vehicle-treated cells.

Where a name gives a salt, the structure may show the parent alone. Read-outs that look alike come from different tables or passages of the source.

Consider `Cc1cn2cc(-c3cc4c(F)cc(N5CCN[C@@H](C)C5)cc4oc3=O)nc2cn1` [Compound 593, 5-fluoro-3-(6-methylimidazo[1,2-a]pyrazin-2-yl)-7-[(3S)-3-methylpiperazin-1-yl]-2H-chromen-2-one], for which, in test [1] (48 hours), the EC1.5x (concentration giving 1.5-fold Smn protein increase) is under 300 nM. Also, the “maximum fold (Fold) increase of Smn protein” value (from here on “maximum fold (Fold) increase”) in test [1] (setting [3]) is reported as “***** (fold increase >1.65)”. Also, the EC (1.5-fold) in test [2] (setting [4]) is under 0.1 µM.

In the case of `Cc1cn2cc(-c3cc4ccc(N5C[C@H]6CCCN(C)[C@H]6C5)cc4oc3=O)nc2c(C)n1` [Compound 782, 3-(6,8-dimethylimidazo[1,2-a]pyrazin-2-yl)-7-[(4aR,7aR)-1-methyloctahydro-6H-pyrrolo[3,4-b]pyridin-6-yl]-2H-chromen-2-one], the EC1.5x (concentration giving 1.5-fold Smn protein increase) in test [1] (48 hours) is under 300 nM. The “maximum fold (Fold) increase” value in test [1] (setting [3]) was “**** (fold increase between >1.5 and ≤1.65)”. Moreover, in test [2] (setting [4]), the “EC1.5x for production of full length SMN2 mRNA” value is on record as “***** (EC1.5x≤0.1 μM)”.

As to `Cc1cn2cc(-c3cc4ccc(N5CCN(C)CC5)cc4oc3=O)nc2c(C)n1` [Compound 516, 3-(6,8-dimethylimidazo[1,2-a]pyrazin-2-yl)-7-(4-methylpiperazin-1-yl)-2H-chromen-2-one], the EC1.5x (concentration giving 1.5-fold Smn protein increase) in test [1] (48 hours) was under 300 nM. The “maximum fold (Fold) increase” value in test [1] (setting [3]) is “***** (fold increase >1.65)”. In test [2] (setting [4]), the EC (1.5-fold) is under 0.1 µM.

For the compound `O=c1oc2cc(OC[C@@H]3CCCN3)ccc2cc1-c1nc2ccccc2s1` [Compound 56, 3-(1,3-benzothiazol-2-yl)-7-[(2S)-pyrrolidin-2-ylmethoxy]-2H-chromen-2-one], in test [1] (setting [3]), the “maximum fold (Fold) increase” value is listed as “* (maximum fold increase of ≤1.2)”. Further, the EC (1.5-fold) in test [2] (setting [4]) was 3 to 30 µM.

With `O=c1oc2cc(OC3CCNC3)ccc2cc1-c1cn2cccnc2n1` (stereo in doubt) [Cpd 321, 3-(imidazo[1,2-a]pyrimidin-2-yl)-7-[(3R)-pyrrolidin-3-yloxy]-2H-chromen-2-one hydrochloride (1:2)], in test [1], the “maximum fold (Fold) increase” value was “** (key: *: maximum fold increase of ≤1.2; **: fold increase between >1.2 and ≤1.35; ***: fold increase between >1.35 and ≤1.5; ****: fold increase between >1.5 and ≤1.65; *****: fold increase >1.65)”. Further, the EC (1.5-fold) in test [2] (24 h) fell in the range of 1 to 3 µM.

`Cc1cn2cc(-c3cc4ccc(N5CCCN(C)CC5)cc4oc3=O)cc2c(C)n1` [Compound 681, 3-(1,3-dimethylpyrrolo[1,2-a]pyrazin-7-yl)-7-(4-methyl-1,4-diazepan-1-yl)-2H-chromen-2-one]: the EC1.5x (concentration giving 1.5-fold Smn protein increase) in test [1] (48 hours) is under 300 nM. For the same compound, the “maximum fold (Fold) increase” value in test [1] (setting [3]) was “**** (fold increase between >1.5 and ≤1.65)”. Besides, the EC (1.5-fold) in test [2] (setting [4]) is under 0.1 µM.

Regarding `C[C@H]1CN(c2ccc3cc(-c4cc5cnccc5s4)c(=O)oc3c2)CCN1` [Compound 629, 7-[(3S)-3-methylpiperazin-1-yl]-3-(thieno[3,2-c]pyridin-2-yl)-2H-chromen-2-one], the “maximum fold (Fold) increase” value in test [1] (setting [3]) is on record as “* (maximum fold increase of ≤1.2)”. In addition, the EC (1.5-fold) in test [2] (setting [4]) was in the range of 0.3 to 1 µM.

On to `Cc1cn2cc(-c3cc4ccc(N5CCN[C@H](C)C5)cc4oc3=O)nc2cn1` [Compound 570, 3-(6-methylimidazo[1,2-a]pyrazin-2-yl)-7-[(3R)-3-methylpiperazin-1-yl]-2H-chromen-2-one], for which the EC1.5x (concentration giving 1.5-fold Smn protein increase) in test [1] (48 hours) is under 300 nM. In test [1] (setting [3]), the “maximum fold (Fold) increase” value is “***** (fold increase >1.65)”. Further, the EC (1.5-fold) in test [2] (setting [4]) was under 0.1 µM.

With `CC[C@H]1CN(c2ccc3cc(-c4cn5cc(C)nc(C)c5n4)c(=O)oc3c2)CCN1` [Compound 772, 3-(6,8-dimethylimidazo[1,2-a]pyrazin-2-yl)-7-[(3S)-3-ethylpiperazin-1-yl]-2H-chromen-2-one], in test [1] (48 hours), the EC1.5x (concentration giving 1.5-fold Smn protein increase) is under 300 nM. Moreover, in test [1] (setting [3]), the “maximum fold (Fold) increase” value is listed as “***** (fold increase >1.65)”. Moreover, in test [2] (setting [4]), the EC (1.5-fold) was under 0.1 µM.

Consider `CCCN1CCC(c2ccc3cc(-c4cn5cc(C)ncc5n4)c(=O)oc3c2)CC1` [Compound 887, 3-(6-methylimidazo[1,2-a]pyrazin-2-yl)-7-(1-propylpiperidin-4-yl)-2H-chromen-2-one], for which the EC1.5x (concentration giving 1.5-fold Smn protein increase) in test [1] (48 hours) is under 300 nM. Besides, the “maximum fold (Fold) increase” value in test [1] (setting [3]) is on record as “***** (fold increase >1.65)”. In test [2] (setting [4]), the EC (1.5-fold) is under 0.1 µM.

Turning to `O=c1oc2cc(N3CCN4CCC[C@H]4C3)ccc2cc1-c1ccc2nccn2c1` [Compound 979, 7-[(8aS)-hexahydropyrrolo[1,2-a]pyrazin-2(1H)-yl]-3-(imidazo[1,2-a]pyridin-6-yl)-2H-chromen-2-one], in test [1] (setting [3]), the “maximum fold (Fold) increase” value was “** (fold increase between >1.2 and ≤1.35)”. Also, in test [2] (setting [4]), the EC (1.5-fold) fell in the range of 1 to 3 µM.

For `CCN1CCC(c2ccc3cc(-c4cc5c(C)nc(C)cn5n4)c(=O)oc3c2)CC1` [Cpd 853, 3-(4,6-dimethylpyrazolo[1,5-a]pyrazin-2-yl)-7-(1-ethylpiperidin-4-yl)-2H-chromen-2-one], the “maximum fold (Fold) increase” value in test [1] (setting [3]) is “* (maximum fold increase of ≤1.2)”. Besides, the EC (1.5-fold) in test [2] (setting [4]) was 1 to 3 µM.

Regarding `CN1CCN(C(=O)c2ccc3cc(-c4nc5c(Cl)cccc5s4)c(=O)oc3c2)CC1` [Cpd 28, 3-(4-chloro-1,3-benzothiazol-2-yl)-7-[(4-methylpiperazin-1-yl)carbonyl]-2H-chromen-2-one], the “maximum fold (Fold) increase” value in test [1] (setting [3]) is listed as “* (maximum fold increase of ≤1.2)”. Moreover, in test [2] (setting [4]), the EC (1.5-fold) was in the range of 3 to 30 µM.

As for `CN1CCN(c2cc(F)c3cc(-c4cn5cccnc5n4)c(=O)oc3c2)CC1` [Compound 351, 5-fluoro-3-(imidazo[1,2-a]pyrimidin-2-yl)-7-(4-methylpiperazin-1-yl)-2H-chromen-2-one], in test [1] (setting [3]), the “maximum fold (Fold) increase” value was “* (maximum fold increase of ≤1.2)”. Further, in test [2] (setting [4]), the EC (1.5-fold) fell in the range of 0.3 to 1 µM.
